Assay results from EP4813989A1, “CRYSTAL, PHARMACEUTICAL COMPOSITION, PREPARATION METHOD THEREFOR, AND USE THEREOF” (TYK Medicines, Inc., priority 2023, dated 2025).

Experiments:
Type in all cases: physicochemical
[1] = Accelerated test, related substances by HPLC; conditions: 40°C±2°C, 75%RH±5%RH; for Impurity content RRT0.55 / Impurity content RRT0.66 / Impurity content RRT0.71 / Impurity content RRT0.94 / Impurity content RRT1.02 / Impurity content RRT1.06 / Impurity content RRT1.08 / Impurity content RRT1.15 / Total impurities: open
Experimental: An investigation method for the accelerated test can be seen in Table 14 below.
Change results of related substances in each crystal form under the accelerated condition (40°C±2°C, 75%RH±5%RH) can be seen in Table 18.
HPLC detection results of related substances under the accelerated condition can be seen as follows: Table 18

[2] = High-humidity test, related substances by HPLC; conditions: 90%RH±5%RH; for Impurity content RRT0.55 / Impurity content RRT0.66 / Impurity content RRT0.71 / Impurity content RRT0.94 / Impurity content RRT1.02 / Impurity content RRT1.06 / Impurity content RRT1.08 / Impurity content RRT1.15 / Total impurities: open
Source text: An investigation method for the high-humidity test can be seen in Table 12 below.
Results of related substances in each crystal form under the high-humidity condition (90%RH±5%RH) can be seen in Table 16.
HPLC detection results of related substances under the high-humidity condition can be seen as follows: Table 16

[3] = Flowability test (angle of repose); conditions: listed as amorphous sample
Experimental: A flowability determination method was as follows: an angle of repose was determined by using a device composed of 2 to 3 funnels connected in series in a staggered manner, and drug powder was slowly and uniformly passed through the funnels onto a stationary base with a diameter d, so as to form a symmetric powder pile with a single layer of powder at the bottom. During the formation of the powder pile, a height of the funnels was maintained within 2-4 cm from a top of the powder pile, a height h of the cone was determined, and the angle of repose was calculated as tanθ=h/(d/2).

[4] = Dynamic vapor sorption (DVS) hygroscopicity
Experimental: Dynamic vapor sorption (DVS) was used to investigate hygroscopicities of an active pharmaceutical ingredient in different crystal forms.
Determination method: • instrument: dynamic vapor sorption analyzer; temperature: 25°C; protective gas and flow rate: N2, 200 mL/min; • dm/dt: 0.002%/min; RH range: 0%RH-100%RH; cycle: 1 full cycle.

[5] = Light exposure test, related substances by HPLC; conditions: for Impurity content RRT0.55 / Impurity content RRT0.66 / Impurity content RRT0.71 / Impurity content RRT0.94 / Impurity content RRT1.02 / Impurity content RRT1.06 / Impurity content RRT1.08 / Impurity content RRT1.15 / Total impurities: 4500lx±500lx, open
Source text: An investigation method for the light exposure test can be seen in Table 13 below.
Results of related substances in each crystal form under the light exposure condition (4500lx±500lx) can be seen in Table 17.
HPLC detection results of related substances under the light exposure condition can be seen as follows: Table 17

C[C@@H](Nc1ccn2ncc(C3=NOC(C)(C)N3)c2n1)c1cc(F)cc(F)c1F [amorphous form]
0.09%: Impurity content RRT1.06 ([2]; 5 days) | Impurity content RRT1.06 ([2]; 11 days) | Impurity content RRT1.06 ([5]; 11 days)
1.11%: Total impurities ([2]; 11 days) | Total impurities ([2]; 32 days)
0.24%: Impurity content RRT1.08 ([1]; 11 days)
1.38%: Total impurities ([5]; 32 days)
1.01%: Total impurities ([1]; 0 day) | Total impurities ([2]; 0 day) | Total impurities ([5]; 0 day)
0.29%: Impurity content RRT1.02 ([1]; 0 day) | Impurity content RRT1.02 ([1]; 32 days) | Impurity content RRT1.02 ([2]; 0 day) | Impurity content RRT1.02 ([5]; 0 day)
0.10%: Increase of total impurities ([2]; 32 days)
0.37%: Increase of total impurities ([5]; 4500 lx±500 lx, 32 days) | Impurity content RRT1.08 ([5]; 32 days)
0.23%: Impurity content RRT1.08 ([2]; 32 days) | Impurity content RRT0.66 ([5]; 32 days)
0.32%: Impurity content RRT1.02 ([1]; 5 days) | Impurity content RRT1.02 ([5]; 5 days)
0.08%: Impurity content RRT1.06 ([1]; 5 days) | Impurity content RRT1.06 ([1]; 11 days) | Impurity content RRT1.06 ([5]; 5 days)
0.28%: Impurity content RRT1.08 ([5]; 11 days)
0.21%: Impurity content RRT1.08 ([1]; 32 days) | Impurity content RRT0.66 ([2]; 5 days) | Impurity content RRT1.08 ([5]; 5 days) | Impurity content RRT0.66 ([5]; 11 days) | Impurity content RRT0.71 ([5]; 32 days)
approximately 37.5 °: angle of repose [3]
approximately 3.5%: DVS weight gain ([4]; humidity increased from 90% to 100%)
0.31%: Impurity content RRT1.02 ([1]; 11 days) | Impurity content RRT1.02 ([2]; 5 days) | Impurity content RRT1.02 ([2]; 11 days) | Impurity content RRT1.02 ([2]; 32 days)
0.33%: Impurity content RRT1.02 ([5]; 11 days)
0.17%: Impurity content RRT0.71 ([1]; 5 days) | Impurity content RRT0.71 ([1]; 11 days) | Impurity content RRT0.71 ([2]; 5 days) | Impurity content RRT0.71 ([5]; 5 days) | Impurity content RRT0.71 ([5]; 11 days)
0.16%: Impurity content RRT0.71 ([1]; 0 day) | Impurity content RRT0.71 ([2]; 0 day) | Impurity content RRT0.71 ([2]; 11 days) | Impurity content RRT0.71 ([5]; 0 day)
1.17%: Total impurities ([5]; 11 days)
0.03%: Increase of impurity RRT1.08 content ([1]; 32 days) | Impurity content RRT0.55 ([1]; 0 day) | Impurity content RRT0.94 ([1]; 5 days) | Impurity content RRT0.55 ([1]; 11 days) | Impurity content RRT0.94 ([1]; 11 days) | Impurity content RRT1.15 ([1]; 11 days) | Impurity content RRT1.15 ([1]; 32 days) | Increase of impurity RRT1.02 content ([2]; 32 days) | Impurity content RRT0.55 ([2]; 0 day) | Impurity content RRT0.55 ([2]; 5 days) | Impurity content RRT0.94 ([2]; 5 days) | Impurity content RRT0.55 ([2]; 11 days) | Impurity content RRT0.94 ([2]; 11 days) | Impurity content RRT1.15 ([2]; 11 days) | Impurity content RRT0.55 ([2]; 32 days) | Increase of impurity RRT0.66 content ([5]; 4500 lx±500 lx, 32 days) | Impurity content RRT0.55 ([5]; 0 day) | Impurity content RRT0.94 ([5]; 5 days) | Impurity content RRT0.55 ([5]; 11 days) | Impurity content RRT0.94 ([5]; 11 days) | Impurity content RRT1.15 ([5]; 11 days)
0.22%: Impurity content RRT1.08 ([1]; 5 days)
1.10%: Total impurities ([1]; 11 days)
approximately 1.5%: DVS weight loss ([4]; humidity reduced from 100% to 90%)
0.07%: Impurity content RRT1.06 ([1]; 0 day) | Impurity content RRT1.06 ([2]; 0 day) | Impurity content RRT1.06 ([5]; 0 day) | Impurity content RRT1.06 ([5]; 32 days)
0.05%: Increase of impurity RRT1.08 content ([2]; 32 days) | Impurity content RRT1.15 ([2]; 32 days) | Increase of impurity RRT0.71 content ([5]; 4500 lx±500 lx, 32 days) | Impurity content RRT0.55 ([5]; 32 days) | Impurity content RRT1.15 ([5]; 32 days)
0.25%: Impurity content RRT1.08 ([2]; 11 days)
0.35%: Impurity content RRT1.02 ([5]; 32 days)
1.09%: Total impurities ([1]; 5 days) | Total impurities ([5]; 5 days)
1.05%: Total impurities ([1]; 32 days)
0.18%: Impurity content RRT1.08 ([1]; 0 day) | Impurity content RRT0.71 ([1]; 32 days) | Impurity content RRT1.08 ([2]; 0 day) | Impurity content RRT0.71 ([2]; 32 days) | Impurity content RRT1.08 ([5]; 0 day)
0.20%: Impurity content RRT0.66 ([1]; 0 day) | Impurity content RRT0.66 ([1]; 5 days) | Impurity content RRT0.66 ([1]; 11 days) | Impurity content RRT0.66 ([1]; 32 days) | Impurity content RRT0.66 ([2]; 0 day) | Impurity content RRT0.66 ([2]; 11 days) | Impurity content RRT0.66 ([2]; 32 days) | Impurity content RRT0.66 ([5]; 0 day) | Impurity content RRT0.66 ([5]; 5 days)
had hygroscopicity: Hygroscopicity (conclusion) [4]
0.04%: Impurity content RRT0.94 ([1]; 0 day) | Impurity content RRT1.15 ([1]; 0 day) | Impurity content RRT0.55 ([1]; 5 days) | Impurity content RRT1.15 ([1]; 5 days) | Impurity content RRT0.55 ([1]; 32 days) | Impurity content RRT0.94 ([1]; 32 days) | Impurity content RRT0.94 ([2]; 0 day) | Impurity content RRT1.15 ([2]; 0 day) | Impurity content RRT1.15 ([2]; 5 days) | Impurity content RRT0.94 ([2]; 32 days) | Impurity content RRT0.94 ([5]; 0 day) | Impurity content RRT1.15 ([5]; 0 day) | Impurity content RRT0.55 ([5]; 5 days) | Impurity content RRT1.15 ([5]; 5 days)
0.06%: Impurity content RRT1.06 ([1]; 32 days) | Impurity content RRT1.06 ([2]; 32 days) | Increase of impurity RRT1.02 content ([5]; 4500 lx±500 lx, 32 days) | Impurity content RRT0.94 ([5]; 32 days)
1.07%: Total impurities ([2]; 5 days)
0.19%: Impurity content RRT1.08 ([2]; 5 days) | Increase of impurity RRT1.08 content ([5]; 4500 lx±500 lx, 32 days)
